In experiment [1] the target is Non-receptor tyrosine-protein kinase TYK2 (Homo sapiens, UniProt P29597).
Experiment [2] has as its target Tyrosine-protein kinase JAK1 (Homo sapiens, UniProt P23458).
The target of experiment [3] is Tyrosine-protein kinase BTK (Homo sapiens, UniProt Q06187).

Where only a bound is given, the exact number is not on record here.

One may read the IC50 as the concentration that inhibits the measured activity by half. Read a low IC50 as greater potency.

Chain of Tyrosine-protein kinase BTK (Q06187 whole entry): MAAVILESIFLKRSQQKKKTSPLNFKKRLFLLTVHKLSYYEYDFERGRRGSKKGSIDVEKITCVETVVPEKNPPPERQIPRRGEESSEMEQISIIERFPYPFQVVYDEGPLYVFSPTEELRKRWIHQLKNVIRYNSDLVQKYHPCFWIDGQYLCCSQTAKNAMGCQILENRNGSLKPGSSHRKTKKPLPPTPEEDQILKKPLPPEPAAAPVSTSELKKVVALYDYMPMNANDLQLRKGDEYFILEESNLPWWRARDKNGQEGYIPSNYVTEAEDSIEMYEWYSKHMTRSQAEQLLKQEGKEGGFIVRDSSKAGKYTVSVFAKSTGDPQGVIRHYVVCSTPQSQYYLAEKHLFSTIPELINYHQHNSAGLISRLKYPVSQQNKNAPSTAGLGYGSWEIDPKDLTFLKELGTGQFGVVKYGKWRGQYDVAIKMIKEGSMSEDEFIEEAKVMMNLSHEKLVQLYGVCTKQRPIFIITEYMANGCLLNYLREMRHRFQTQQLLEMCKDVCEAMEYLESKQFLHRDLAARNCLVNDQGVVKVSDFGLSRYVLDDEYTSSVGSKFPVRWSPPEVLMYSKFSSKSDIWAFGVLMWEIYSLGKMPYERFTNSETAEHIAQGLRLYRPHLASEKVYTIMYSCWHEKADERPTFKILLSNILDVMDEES
Chain of Tyrosine-protein kinase JAK1 (P23458 whole entry): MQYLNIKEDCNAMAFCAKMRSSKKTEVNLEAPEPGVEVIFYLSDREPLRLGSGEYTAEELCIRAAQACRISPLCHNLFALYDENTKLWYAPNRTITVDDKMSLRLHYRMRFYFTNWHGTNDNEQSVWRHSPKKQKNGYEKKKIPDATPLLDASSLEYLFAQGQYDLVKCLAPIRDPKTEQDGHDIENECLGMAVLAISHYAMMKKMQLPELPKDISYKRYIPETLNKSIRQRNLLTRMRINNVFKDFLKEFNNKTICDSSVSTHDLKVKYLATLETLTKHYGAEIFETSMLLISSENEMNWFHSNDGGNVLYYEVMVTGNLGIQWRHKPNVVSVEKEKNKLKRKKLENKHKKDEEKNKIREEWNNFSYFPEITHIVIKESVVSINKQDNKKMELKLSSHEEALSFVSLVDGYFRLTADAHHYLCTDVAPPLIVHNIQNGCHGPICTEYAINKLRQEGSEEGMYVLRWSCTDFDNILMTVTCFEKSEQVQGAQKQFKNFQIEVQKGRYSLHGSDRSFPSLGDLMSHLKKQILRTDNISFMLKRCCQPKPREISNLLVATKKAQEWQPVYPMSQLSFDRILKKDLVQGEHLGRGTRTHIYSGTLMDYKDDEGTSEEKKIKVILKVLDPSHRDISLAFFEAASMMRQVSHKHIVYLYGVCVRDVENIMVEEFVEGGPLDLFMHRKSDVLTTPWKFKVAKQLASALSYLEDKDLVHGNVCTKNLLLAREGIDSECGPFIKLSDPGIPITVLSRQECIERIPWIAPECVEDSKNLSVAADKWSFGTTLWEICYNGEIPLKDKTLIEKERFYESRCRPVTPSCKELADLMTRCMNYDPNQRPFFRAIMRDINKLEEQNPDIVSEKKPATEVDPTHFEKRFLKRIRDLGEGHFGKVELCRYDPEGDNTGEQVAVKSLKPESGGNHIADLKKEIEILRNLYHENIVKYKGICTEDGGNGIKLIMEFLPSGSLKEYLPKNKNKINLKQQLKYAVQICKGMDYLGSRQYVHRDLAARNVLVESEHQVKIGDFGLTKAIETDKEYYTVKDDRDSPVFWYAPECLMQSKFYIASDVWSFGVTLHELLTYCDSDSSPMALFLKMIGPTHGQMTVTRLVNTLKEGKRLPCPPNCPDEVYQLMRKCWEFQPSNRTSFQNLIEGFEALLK
Chain of Non-receptor tyrosine-protein kinase TYK2 (P29597 whole entry): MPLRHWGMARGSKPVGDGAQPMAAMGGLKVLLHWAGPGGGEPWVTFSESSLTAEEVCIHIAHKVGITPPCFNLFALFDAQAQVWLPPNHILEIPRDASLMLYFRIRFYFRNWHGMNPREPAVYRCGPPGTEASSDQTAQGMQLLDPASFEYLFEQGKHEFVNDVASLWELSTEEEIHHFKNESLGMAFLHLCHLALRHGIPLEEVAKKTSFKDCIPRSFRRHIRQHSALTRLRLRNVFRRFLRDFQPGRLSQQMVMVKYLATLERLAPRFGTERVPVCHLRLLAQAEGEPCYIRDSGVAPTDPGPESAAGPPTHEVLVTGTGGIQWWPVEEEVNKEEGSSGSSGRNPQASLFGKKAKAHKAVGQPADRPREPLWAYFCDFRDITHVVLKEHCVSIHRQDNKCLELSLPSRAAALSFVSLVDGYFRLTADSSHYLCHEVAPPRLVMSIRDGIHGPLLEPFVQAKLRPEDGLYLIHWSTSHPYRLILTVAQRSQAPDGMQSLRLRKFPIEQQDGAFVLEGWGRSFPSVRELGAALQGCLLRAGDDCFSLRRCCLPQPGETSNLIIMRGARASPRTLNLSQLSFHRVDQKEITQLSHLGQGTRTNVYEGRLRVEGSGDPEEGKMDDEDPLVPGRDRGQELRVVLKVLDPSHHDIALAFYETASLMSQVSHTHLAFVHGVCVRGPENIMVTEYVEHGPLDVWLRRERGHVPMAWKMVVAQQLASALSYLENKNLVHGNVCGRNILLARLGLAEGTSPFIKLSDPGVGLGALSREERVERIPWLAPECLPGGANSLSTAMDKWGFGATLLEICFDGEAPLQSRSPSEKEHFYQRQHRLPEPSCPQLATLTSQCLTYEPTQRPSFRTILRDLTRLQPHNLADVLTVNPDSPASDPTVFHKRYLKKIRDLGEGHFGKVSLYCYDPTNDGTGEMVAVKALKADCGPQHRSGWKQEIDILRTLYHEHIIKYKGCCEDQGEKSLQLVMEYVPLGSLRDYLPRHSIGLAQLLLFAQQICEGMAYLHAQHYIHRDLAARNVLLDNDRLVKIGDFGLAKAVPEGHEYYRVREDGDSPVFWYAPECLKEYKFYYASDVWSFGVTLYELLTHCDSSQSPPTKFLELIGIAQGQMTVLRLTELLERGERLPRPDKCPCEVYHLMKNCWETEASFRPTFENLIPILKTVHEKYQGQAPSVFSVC

As for `C=CC(=O)N1CCC(n2nc(-c3cnn(C)c3)c3c(N)ncnc32)C1` (stereo not given), the results for the IC50 in experiment [1], in experiment [2] and in experiment [3] were 1420 nM, 694 nM and 203 nM, respectively.

Consider `Cn1cc(-c2nn(CC3CCCN(C(=O)CC#N)C3)c3ncnc(N)c23)cn1` (stereo not given), for which the IC50 in experiment [1] was 2350 nM; in experiment [2] it was 147 nM.

`COCCn1cc(-c2nn(C3CCN(C#N)CC3)c3ncnc(N)c23)cn1` returned an IC50 in experiment [2] of 112 nM.

`Cn1cc(-c2nn(C3CCN(C#N)CC3)c3ncnc(N)c23)cn1` returned an IC50 in experiment [2] of 165 nM. The IC50 values of the last two compounds are within 1.5-fold of each other.

`Cn1cc(-c2nn(C3CCCN(C(=O)CC#N)C3)c3ncnc(N)c23)cn1` (stereo not given): the figures for the IC50 in experiment [1] and in experiment [2] were 2430 nM and 342 nM, respectively.

In the case of `COCCn1cc(-c2nn(C3CCCN(C(=O)CC#N)C3)c3ncnc(N)c23)cn1` (stereo not given), the IC50 in experiment [1] worked out at 3220 nM; in experiment [2], 497 nM.

As for `CN(C)CC(=O)N1CCCC(Cn2nc(-c3cnn(C)c3)c3c(N)ncnc32)C1` (stereo not given), in experiment [2], the half-maximal inhibitory concentration (IC50) was found to be 2290 nM.

Regarding `COCCn1cc(-c2nn(CC3CCCN(C(=O)CC#N)C3)c3ncnc(N)c23)cn1` (stereo not given), the IC50 in experiment [1] was > 3000 nM; in experiment [2], 497 nM.

Take `C=CC(=O)N1CCCC(Cn2nc(-c3cnn(CCOC)c3)c3c(N)ncnc32)C1` (stereo not given): the IC50 in experiment [1] amounted to 3300 nM; in experiment [2], 1670 nM; in experiment [3], 420 nM.

On to `C=CC(=O)N1CCC(n2nc(-c3cnn(CCOC)c3)c3c(N)ncnc32)C1` (stereo not given), for which the results for the concentration for half-maximal inhibition (IC50) in experiment [1], in experiment [2] and in experiment [3] were 1720 nM, 1070 nM and 126 nM, respectively.

As for `C=CC(=O)N1CCCC(n2nc(-c3cnn(CCOC)c3)c3c(N)ncnc32)C1` (stereo not given), the concentration for half-maximal inhibition (IC50) in experiment [1] is 2120 nM; in experiment [2] it was 1350 nM; in experiment [3] it was 159 nM.

On to `C=CC(=O)N1CCCC(n2nc(-c3cnn(C)c3)c3c(N)ncnc32)C1` (stereo not given), for which the IC50 in experiment [1] came to 1180 nM; in experiment [2], 618 nM; in experiment [3] it was 180 nM.

In the case of `C=CC(=O)N1CCCC(Cn2nc(-c3cnn(C)c3)c3c(N)ncnc32)C1` (stereo not given), the half-inhibitory concentration (IC50) in experiment [1] turned out to be 3960 nM; in experiment [2], 1950 nM; in experiment [3], 481 nM.

In experiment [2], `CN(C)CC(=O)N1CCCC(n2nc(-c3cnn(C)c3)c3c(N)ncnc32)C1` (stereo not given) registered a concentration for half-maximal inhibition (IC50) of 1370 nM.

Values taken from ChEMBL document CHEMBL4229546, “Structure-based design and synthesis of 1H-pyrazolo[3,4-d]pyrimidin-4-amino derivatives as Janus kinase 3 inhibitors” (Bioorg Med Chem, 2018).
